Source: the supplement of paper PMC8612539
In brackets after ≈: the same amount, converted by molar mass.

System: Escherichia coli
Assay: minimum inhibitory concentration (MIC)
Description: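 Broth microdilution MIC (Sensititre BOPO7F bovine plate, CLSI methods) of 19 antimicrobials against field isolates of P. multocida, M. haemolytica, H. somni (deep nasopharyngeal swabs) and E. coli, Enterococcus spp. (rectal swabs) from weaned dairy heifers. Incubation 16-24 h at 35 C. MIC is the lowest concentration preventing visible growth. Values with <= or > lie at the tested range limits. Trimethoprim-sulfamethoxazole is given as the trimethoprim component of a 1:19 mixture.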

CC[C@H]1OC(=O)C[C@@H](O)[C@H](C)[C@@H](O[C@@H]2O[C@H](C)[C@@H](O)[C@H](N(C)C)[C@H]2O)[C@@H](CCN2CCCCC2)C[C@@H](C)C(=O)/C=C/C(C)=C/[C@@H]1CN1CCCCC1 [Tildipirosin]
Conditions	minimum inhibitory concentration [µg/mL]
isolate (source animal id): 8	4 (≈ 5.45 µM)
isolate (source animal id): 9	16 (≈ 21.8 µM)
isolate (source animal id): 10	8 (≈ 10.9 µM)
isolate (source animal id): 11	4 (≈ 5.45 µM)
isolate (source animal id): 12	4 (≈ 5.45 µM)
isolate (source animal id): 13	4 (≈ 5.45 µM)
isolate (source animal id): 14	4 (≈ 5.45 µM)
isolate (source animal id): 15	4 (≈ 5.45 µM)
isolate (source animal id): 16	4 (≈ 5.45 µM)
isolate (source animal id): 98	4 (≈ 5.45 µM)
isolate (source animal id): 99	4 (≈ 5.45 µM)
isolate (source animal id): 100	2 (≈ 2.72 µM)
isolate (source animal id): 101	4 (≈ 5.45 µM)
isolate (source animal id): 102	4 (≈ 5.45 µM)
isolate (source animal id): 103	4 (≈ 5.45 µM)
isolate (source animal id): 104	4 (≈ 5.45 µM)
isolate (source animal id): 105	4 (≈ 5.45 µM)
isolate (source animal id): 106	16 (≈ 21.8 µM)
isolate (source animal id): 107	8 (≈ 10.9 µM)
isolate (source animal id): 108	4 (≈ 5.45 µM)
isolate (source animal id): 109	4 (≈ 5.45 µM)
isolate (source animal id): 110	4 (≈ 5.45 µM)
isolate (source animal id): 111	4 (≈ 5.45 µM)
isolate (source animal id): 112	4 (≈ 5.45 µM)
isolate (source animal id): 113	4 (≈ 5.45 µM)
isolate (source animal id): 114	4 (≈ 5.45 µM)
isolate (source animal id): 115	8 (≈ 10.9 µM)
isolate (source animal id): 116	4 (≈ 5.45 µM)
isolate (source animal id): 117	> 16
isolate (source animal id): 118	8 (≈ 10.9 µM)
isolate (source animal id): 119	8 (≈ 10.9 µM)
isolate (source animal id): 120	4 (≈ 5.45 µM)
isolate (source animal id): 121	4 (≈ 5.45 µM)
isolate (source animal id): 122	4 (≈ 5.45 µM)
isolate (source animal id): 123	4 (≈ 5.45 µM)
isolate (source animal id): 124	2 (≈ 2.72 µM)
isolate (source animal id): 125	≤ 1
isolate (source animal id): 126	4 (≈ 5.45 µM)
isolate (source animal id): 127	8 (≈ 10.9 µM)
isolate (source animal id): 128	4 (≈ 5.45 µM)
isolate (source animal id): 129	4 (≈ 5.45 µM)
isolate (source animal id): 130	4 (≈ 5.45 µM)
isolate (source animal id): 131	2 (≈ 2.72 µM)
isolate (source animal id): 132	4 (≈ 5.45 µM)
isolate (source animal id): 133	4 (≈ 5.45 µM)
isolate (source animal id): 134	4 (≈ 5.45 µM)
isolate (source animal id): 135	4 (≈ 5.45 µM)
isolate (source animal id): 136	4 (≈ 5.45 µM)
isolate (source animal id): 137	4 (≈ 5.45 µM)
isolate (source animal id): 138	4 (≈ 5.45 µM)
isolate (source animal id): 139	2 (≈ 2.72 µM)
isolate (source animal id): 140	4 (≈ 5.45 µM)
isolate (source animal id): 141	4 (≈ 5.45 µM)
isolate (source animal id): 142	4 (≈ 5.45 µM)
isolate (source animal id): 143	8 (≈ 10.9 µM)
isolate (source animal id): 144	4 (≈ 5.45 µM)
isolate (source animal id): 145	4 (≈ 5.45 µM)
isolate (source animal id): 146	8 (≈ 10.9 µM)
isolate (source animal id): 147	2 (≈ 2.72 µM)
isolate (source animal id): 148	4 (≈ 5.45 µM)
isolate (source animal id): 149	4 (≈ 5.45 µM)
isolate (source animal id): 150	4 (≈ 5.45 µM)
isolate (source animal id): 151	4 (≈ 5.45 µM)
isolate (source animal id): 152	4 (≈ 5.45 µM)
isolate (source animal id): 153	4 (≈ 5.45 µM)
isolate (source animal id): 154	4 (≈ 5.45 µM)
isolate (source animal id): 155	4 (≈ 5.45 µM)
isolate (source animal id): 156	4 (≈ 5.45 µM)
isolate (source animal id): 157	4 (≈ 5.45 µM)
isolate (source animal id): 158	4 (≈ 5.45 µM)
isolate (source animal id): 159	4 (≈ 5.45 µM)
isolate (source animal id): 160	4 (≈ 5.45 µM)
isolate (source animal id): 161	2 (≈ 2.72 µM)
isolate (source animal id): 162	4 (≈ 5.45 µM)
isolate (source animal id): 163	4 (≈ 5.45 µM)
isolate (source animal id): 164	4 (≈ 5.45 µM)
isolate (source animal id): 165	4 (≈ 5.45 µM)
isolate (source animal id): 166	4 (≈ 5.45 µM)
isolate (source animal id): 167	8 (≈ 10.9 µM)
isolate (source animal id): 168	4 (≈ 5.45 µM)
isolate (source animal id): 169	4 (≈ 5.45 µM)
isolate (source animal id): 170	4 (≈ 5.45 µM)
isolate (source animal id): 171	4 (≈ 5.45 µM)
isolate (source animal id): 172	4 (≈ 5.45 µM)
isolate (source animal id): 173	4 (≈ 5.45 µM)
isolate (source animal id): 174	4 (≈ 5.45 µM)
isolate (source animal id): 175	8 (≈ 10.9 µM)
isolate (source animal id): 176	8 (≈ 10.9 µM)
isolate (source animal id): 177	4 (≈ 5.45 µM)
isolate (source animal id): 178	4 (≈ 5.45 µM)
isolate (source animal id): 179	4 (≈ 5.45 µM)
isolate (source animal id): 180	4 (≈ 5.45 µM)
isolate (source animal id): 181	16 (≈ 21.8 µM)
isolate (source animal id): 182	8 (≈ 10.9 µM)
isolate (source animal id): 183	4 (≈ 5.45 µM)
isolate (source animal id): 184	8 (≈ 10.9 µM)
isolate (source animal id): 185	4 (≈ 5.45 µM)
isolate (source animal id): 186	4 (≈ 5.45 µM)
isolate (source animal id): 187	2 (≈ 2.72 µM)
isolate (source animal id): 188	4 (≈ 5.45 µM)
